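A five-concentration, 48-hour dose response in 96-well plates underlies each endpoint, interpolated linearly between surrounding concentrations. TGI is the concentration that stops growth completely.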

Test systems include T-47D breast; MCF7 breast; HL-60(TB) leukemia; CCRF-CEM leukemia; COLO 205 colon; HS 578T breast; SK-MEL-28 melanoma; SNB-19 CNS; NCI-H522 lung; A549 NSCLC; K-562 leukemia; HOP-62 NSCLC; HT29 colon; NCI-H226 lung; TK-10 renal.
Test in all cases: growth of human tumour cells (NCI), 48 h

`Cc1ccc2c(c1)C(=O)c1nc(C)ccc1C2=O`: the TGI with T-47D breast was above 100 µM; in the assay with MCF7 breast it was above 100 µM; in the assay on HL-60(TB) leukemia, 70.3 µM; in the assay on CCRF-CEM leukemia it was above 100 µM; in the assay with COLO 205 colon, 42.7 µM; in the assay with HS 578T breast, above 100 µM. Besides, the TGI was above 100 µM in the assay on SK-MEL-28 melanoma; 63.7 µM with SNB-19 CNS; 74.2 µM in the assay with NCI-H522 lung; above 100 µM in the assay on A549 NSCLC; above 100 µM with K-562 leukemia; above 100 µM with HOP-62 NSCLC. The TGI is 83 µM in the assay on HT29 colon, above 100 µM with NCI-H226 lung and above 100 µM in the assay with TK-10 renal.

On to `COC(=O)C1Cc2cc3c(cc2C1=O)CCCC3` (stereo not given), for which the TGI in the assay with T-47D breast, in the assay with MCF7 breast, in the assay on HL-60(TB) leukemia, in the assay with CCRF-CEM leukemia, in the assay on COLO 205 colon and with HS 578T breast was above 100 µM each time. The TGI in the assay on SK-MEL-28 melanoma, with SNB-19 CNS, with NCI-H522 lung, in the assay with A549 NSCLC, with K-562 leukemia and in the assay on HOP-62 NSCLC was above 100 µM throughout. Further, the TGI was above 100 µM in the assay on HT29 colon, 87 µM in the assay with NCI-H226 lung and above 100 µM with TK-10 renal.

Turning to `O=C(c1nc2ccc([N+](=O)[O-])cc2[nH]c1=O)C(O)c1ccc2c(c1)OCO2` (stereo not given), the TGI with T-47D breast, in the assay on MCF7 breast, in the assay on HL-60(TB) leukemia, with CCRF-CEM leukemia, in the assay with COLO 205 colon and in the assay on HS 578T breast was above 100 µM in each case. Further, the TGI with SK-MEL-28 melanoma, with SNB-19 CNS, in the assay with NCI-H522 lung, with A549 NSCLC, in the assay with K-562 leukemia and in the assay with HOP-62 NSCLC was above 100 µM throughout. In addition, the TGI in the assay with HT29 colon, in the assay with NCI-H226 lung and with TK-10 renal was above 100 µM throughout.

For `NC(N)=NC(N)=Nc1ccc(S(=O)(=O)O)cc1`, the TGI in the assay with T-47D breast, in the assay with MCF7 breast, in the assay on HL-60(TB) leukemia, in the assay with CCRF-CEM leukemia, with COLO 205 colon and in the assay on HS 578T breast was above 100 µM in each case. Also, the TGI in the assay with SK-MEL-28 melanoma, in the assay on SNB-19 CNS, in the assay on NCI-H522 lung, with A549 NSCLC, with K-562 leukemia and in the assay on HOP-62 NSCLC was above 100 µM throughout. Further, the TGI in the assay with HT29 colon, with NCI-H226 lung and with TK-10 renal was above 100 µM throughout.

Consider `CCOC(=O)c1[nH]c(-c2[nH]c(-c3[nH]c(-c4[nH]c(C(=O)OCC)c(C)c4C(=O)OCC)c(C(=O)OCC)c3C)c(C)c2C(=O)OCC)c(C(=O)OCC)c1C`, for which the TGI with T-47D breast, in the assay on MCF7 breast, in the assay with HL-60(TB) leukemia, with CCRF-CEM leukemia, with COLO 205 colon and in the assay on HS 578T breast was above 100 µM throughout. Also, the TGI in the assay with SK-MEL-28 melanoma, in the assay on SNB-19 CNS, with NCI-H522 lung, with A549 NSCLC, in the assay with K-562 leukemia and with HOP-62 NSCLC was above 100 µM in each case. Further, the TGI in the assay with HT29 colon, in the assay with NCI-H226 lung and with TK-10 renal was above 100 µM throughout.

In the case of `COc1ccc2nc(-c3ccccc3)cc(OCC(=O)O)c2c1`, the TGI with T-47D breast, in the assay on MCF7 breast, in the assay with HL-60(TB) leukemia, with CCRF-CEM leukemia, in the assay on COLO 205 colon and with HS 578T breast was above 100 µM in each case. Also, the TGI with SK-MEL-28 melanoma, with SNB-19 CNS, with NCI-H522 lung, in the assay on A549 NSCLC, with K-562 leukemia and in the assay on HOP-62 NSCLC was above 100 µM throughout. In addition, the TGI in the assay on HT29 colon, in the assay with NCI-H226 lung and in the assay on TK-10 renal was above 100 µM each time.

In the case of `COc1cc2c(cc1OC)C(=O)N(c1ccc(O)cc1)C2=O`, the TGI in the assay on T-47D breast, with MCF7 breast, in the assay on HL-60(TB) leukemia, in the assay on CCRF-CEM leukemia, in the assay with COLO 205 colon and in the assay with HS 578T breast was above 100 µM in each case. Further, the TGI in the assay on SK-MEL-28 melanoma, in the assay on SNB-19 CNS, in the assay on NCI-H522 lung, in the assay with A549 NSCLC, with K-562 leukemia and in the assay on HOP-62 NSCLC was above 100 µM each time. The TGI with HT29 colon, in the assay on NCI-H226 lung and in the assay on TK-10 renal was above 100 µM each time.

As for `COc1ccc(C2OC(=O)c3ccc4ccccc4c32)c(C)c1` (stereo not given), the TGI in the assay with T-47D breast was above 86 µM; with MCF7 breast, 29.9 µM; with HL-60(TB) leukemia it was above 24.6 µM; in the assay on CCRF-CEM leukemia, above 100 µM; in the assay on COLO 205 colon, above 35.1 µM; in the assay on HS 578T breast it was 45.2 µM. In addition, the TGI was above 71.3 µM with SK-MEL-28 melanoma; above 100 µM in the assay on SNB-19 CNS; 20.9 µM in the assay on NCI-H522 lung; above 100 µM in the assay with A549 NSCLC; above 75.7 µM in the assay with K-562 leukemia; above 90.2 µM in the assay with HOP-62 NSCLC. For the same molecule, the figures for the TGI with HT29 colon, in the assay with NCI-H226 lung and with TK-10 renal were 15.1 µM, 56.9 µM and above 95.3 µM, respectively.

In the case of `CS(=O)(=O)OCCN(CCOS(C)(=O)=O)c1ccc(C=Nc2cccc(Cl)c2)cc1`, the TGI with T-47D breast was above 100 µM; in the assay with MCF7 breast, above 100 µM; in the assay with HL-60(TB) leukemia it was above 100 µM; in the assay on CCRF-CEM leukemia, above 100 µM; in the assay on COLO 205 colon it was 6.56 µM; with HS 578T breast, 98.9 µM. For the same molecule, the TGI with SK-MEL-28 melanoma is above 30.4 µM; with SNB-19 CNS it was above 46.2 µM; in the assay on NCI-H522 lung, 2.84 µM; in the assay with A549 NSCLC it was 29.2 µM; with K-562 leukemia it was above 100 µM; in the assay with HOP-62 NSCLC it was above 100 µM. For the same molecule, the TGI amounted to 33.6 µM in the assay with HT29 colon, 11 µM in the assay on NCI-H226 lung and 6.79 µM in the assay on TK-10 renal.
